In patent publication US9346809B2 (LEO PHARMA A/S, priority 2009, dated 2016) one finds EC50 data, which are given here for 19 compounds.

Each structure is given as a SMILES string. pEC50: −log10 of the molar value. Where two headings read alike, the source gives them in different places.

Assay type in all cases: biochemical
The target of assay [1] is T1, JAK1 (aa 850-1154, catalytic domain, GST-tag) (Homo sapiens, UniProt P23458).
T1 construct: JAK1 (aa 850-1154) and TYK2 (aa 871-1187) are expressed with an N-terminally fused GST-tag; GST (N); purchased Carna Biosciences, Inc; host or cells: baculovirus expression system
The assay can be described thus: JAK kinase assay (HTRF, phosphorylation of TK substrate-biotin), JAK1. The settings on record: ATP at Km (7 μM). In a few lines: (§1)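 Baculovirus-expressed catalytic domains phosphorylated 1 μM TK substrate-biotin in 50 mM Hepes pH 7.0 with ATP at Km (JAK1 7 μM, JAK2 4 μM, JAK3 2 μM, TYK2 13 μM) for 20-30 min at RT. EDTA/KF stop, streptavidin-XL665 plus cryptate antibody overnight; HTRF signal gave EC50.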

Assay [2] has as its target T2, JAK2 (catalytic domain, His-tag) (Homo sapiens, UniProt O60674).
T2 construct: All four purified enzymes contain only the catalytic domain; His (N); purchased Carna Biosciences, Inc; host or cells: baculovirus expression system
In words: JAK kinase assay (HTRF, phosphorylation of TK substrate-biotin), JAK2. To be noted: ATP at Km (4 μM). In a few lines:
as §1
(In general: Time-resolved FRET reads energy transfer from a long-lived donor to a nearby acceptor.)

The target in assay [3] is T3, JAK3 (catalytic domain, His-tag) (Homo sapiens, UniProt P52333).
T3 construct: All four purified enzymes contain only the catalytic domain; His (N); purchased Carna Biosciences, Inc; host or cells: baculovirus expression system
In words: JAK kinase assay (HTRF, phosphorylation of TK substrate-biotin), JAK3. The settings on record: ATP at Km (2 μM). The gist of the method:
as §1

Assay [4] has as its target T4, TYK2 (aa 871-1187, catalytic domain, GST-tag) (Homo sapiens, UniProt P29597).
T4 construct: JAK1 (aa 850-1154) and TYK2 (aa 871-1187) are expressed with an N-terminally fused GST-tag; GST (N); purchased Carna Biosciences, Inc; host or cells: baculovirus expression system
T4 sequence (P29597 871-1187): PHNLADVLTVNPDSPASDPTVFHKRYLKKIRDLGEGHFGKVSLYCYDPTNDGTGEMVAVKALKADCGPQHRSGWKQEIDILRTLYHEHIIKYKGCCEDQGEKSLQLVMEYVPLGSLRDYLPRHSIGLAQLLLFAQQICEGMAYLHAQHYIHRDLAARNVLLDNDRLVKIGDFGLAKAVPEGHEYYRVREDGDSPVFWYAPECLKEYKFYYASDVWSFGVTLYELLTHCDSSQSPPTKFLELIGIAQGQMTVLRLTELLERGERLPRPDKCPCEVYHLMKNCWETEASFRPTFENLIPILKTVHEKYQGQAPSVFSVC
The assay can be described thus: JAK kinase assay (HTRF, phosphorylation of TK substrate-biotin), TYK2. To be noted: ATP at Km (13 μM). The gist of the method: as §1

[5] abbreviates: HTRF assay, read-out: JAK1 kinase inhibitory activity (EC50 indicator).
Where [6] appears, read: HTRF assay, read-out: JAK2 kinase inhibitory activity (EC50 indicator).
[7] abbreviates: HTRF assay, read-out: JAK3 kinase inhibitory activity (EC50 indicator).
Where [8] appears, read: HTRF assay, read-out: TYK2 kinase inhibitory activity (EC50 indicator).
[9] abbreviates: read-out: JAK1 kinase inhibitory activity (EC50 indicator).
Where [10] appears, read: read-out: JAK2 kinase inhibitory activity (EC50 indicator).
Where [11] appears, read: read-out: JAK3 kinase inhibitory activity (EC50 indicator).
Setting [12] is: read-out: TYK2 kinase inhibitory activity (EC50 indicator).
Setting [13] is: HTRF assay, read-out: JAK1 kinase inhibitory activity (EC50).
The mark [14] stands for this setting: HTRF assay, read-out: JAK2 kinase inhibitory activity (EC50).
The mark [15] stands for this setting: HTRF assay, read-out: JAK3 kinase inhibitory activity (EC50).
Where [16] appears, read: HTRF assay, read-out: TYK2 kinase inhibitory activity (EC50).

T3 sequence (P52333 822-1111 limits assumed): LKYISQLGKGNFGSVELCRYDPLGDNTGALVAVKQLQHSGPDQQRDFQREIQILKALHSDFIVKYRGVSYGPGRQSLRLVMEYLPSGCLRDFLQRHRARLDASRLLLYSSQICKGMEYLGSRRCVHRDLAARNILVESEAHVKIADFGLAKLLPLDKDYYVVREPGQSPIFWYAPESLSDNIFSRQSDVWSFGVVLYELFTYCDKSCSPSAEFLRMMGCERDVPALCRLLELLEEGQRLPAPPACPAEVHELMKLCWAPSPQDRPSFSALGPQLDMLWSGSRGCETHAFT
T1 sequence (P23458 850-1154): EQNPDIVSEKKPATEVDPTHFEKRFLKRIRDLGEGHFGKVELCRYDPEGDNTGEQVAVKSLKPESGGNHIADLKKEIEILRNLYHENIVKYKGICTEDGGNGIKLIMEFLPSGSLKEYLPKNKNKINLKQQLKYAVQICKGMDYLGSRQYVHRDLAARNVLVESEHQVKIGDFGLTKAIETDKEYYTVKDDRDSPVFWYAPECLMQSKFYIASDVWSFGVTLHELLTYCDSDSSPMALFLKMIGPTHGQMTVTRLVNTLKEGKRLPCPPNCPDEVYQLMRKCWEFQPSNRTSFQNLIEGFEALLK
T2 sequence (O60674 849-1124 limits assumed): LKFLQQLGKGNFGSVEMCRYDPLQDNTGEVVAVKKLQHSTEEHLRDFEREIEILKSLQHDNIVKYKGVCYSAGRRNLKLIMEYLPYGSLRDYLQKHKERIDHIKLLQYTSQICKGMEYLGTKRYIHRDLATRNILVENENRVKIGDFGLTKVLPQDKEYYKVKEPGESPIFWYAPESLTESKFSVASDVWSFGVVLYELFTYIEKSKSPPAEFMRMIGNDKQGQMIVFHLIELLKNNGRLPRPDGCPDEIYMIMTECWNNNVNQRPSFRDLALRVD

In the case of `NS(=O)(=O)c1cccc(CC(=O)N2CCN(c3ncnc4[nH]ccc34)CC23CC3)c1` [Example 398, 3-{2-Oxo-2-[7-(7H-pyrrolo[2,3-d]pyrimidin-4-yl)-4,7-diaza-spiro[2.5]oct-4-yl]-ethyl}-benzenesulfonamide], the negative logarithm of the EC50 (pEC50) (as a rule, the negative decadic logarithm of the EC50, by convention in mol/L) in assay [1] (setting [5]) was greater than 7.00; in assay [2] (setting [6]) it was greater than 7.00; in assay [3] (setting [7]), greater than 7.00; in assay [4] (setting [8]), less than 6.30.
As to `Cc1cc(S(N)(=O)=O)ccc1C(=O)N1[C@@H]2CC[C@H]1CN(c1ncnc3[nH]ccc13)C2` [Example 391, 3-Methyl-4-[3-(7H-pyrrolo[2,3-d]pyrimidin-4-yl)-3,8-diaza-bicyclo[3.2.1]octane-8-carbonyl]-benzenesulfonamide], the negative-log EC50 (pEC50) in assay [1] (setting [5]) is 6.30 to 7.00; in assay [2] (setting [6]), 6.30 to 7.00; in assay [3] (setting [7]), 6.30 to 7.00; in assay [4] (setting [8]), less than 6.30.
In the case of `N#CCCN1CCC(C(=O)N2CCN(c3ncnc4[nH]ccc34)CC23CC3)CC1` [Example 97, 3-{4-[7-(7H-Pyrrolo[2,3-d]pyrimidin-4-yl)-4,7-diaza-spiro[2.5]octane-4-carbonyl]-piperidin-1-yl}-propionitrile], the pEC50 was greater than 7.00 in assay [1] (setting [9]), 6.30 to 7.00 in assay [2] (setting [10]), 6.30 to 7.00 in assay [3] (setting [11]) and less than 6.30 in assay [4] (setting [12]).
As to `Cc1cc(S(N)(=O)=O)ccc1C(=O)N1CCN(c2ncnc3[nH]ccc23)CC12CC2` [Example 379, 3-Methyl-4-[7-(7H-pyrrolo[2,3-d]pyrimidin-4-yl)-4,7-diaza-spiro[2.5]octane-4-carbonyl]-benzenesulfonamide], the negative logarithm of the EC50 (pEC50) in assay [1] (setting [5]) was greater than 7.00; in assay [2] (setting [6]), greater than 7.00; in assay [3] (setting [7]), greater than 7.00; in assay [4] (setting [8]), 6.30 to 7.00.
In the case of `CS(=O)(=O)c1ccc(CC(=O)N2C3CCC2CN(c2ncnc4[nH]ccc24)C3)cc1` [Example 134, 2-(4-Methanesulfonyl-phenyl)-1-[3-(7H-pyrrolo[2,3-d]pyrimidin-4-yl)-3,8-diaza-bicyclo[3.2.1]oct-8-yl]-ethanone], the pEC50 in assay [1] (setting [9]) was 6.30 to 7.00; in assay [2] (setting [10]) it was 6.30 to 7.00; in assay [3] (setting [11]), less than 6.30; in assay [4] (setting [12]), less than 6.30.
In the case of `N#CCc1ccc(C(=O)N2CCN(c3ccnc4[nH]ccc34)CC23CC3)cc1` [Example 230, {4-[7-(1H-Pyrrolo[2,3-b]pyridin-4-yl)-4,7-diaza-spiro[2.5]octane-4-carbonyl]-phenyl}-acetonitrile], the pEC50 was 6.30 to 7.00 in assay [1] (setting [5]), greater than 7.00 in assay [2] (setting [6]), 6.30 to 7.00 in assay [3] (setting [7]) and less than 6.30 in assay [4] (setting [8]).
With `O=C(C1CCc2ccccc21)N1CCN(c2ncnc3[nH]ccc23)CC12CC2` (stereo not shown) [Example 105, Indan-1-yl-[7-(7H-pyrrolo[2,3-d]pyrimidin-4-yl)-4,7-diaza-spiro[2.5]oct-4-yl]-methanone], the pEC50 was 6.30 to 7.00 in assay [1] (setting [9]), greater than 7.00 in assay [2] (setting [10]), 6.30 to 7.00 in assay [3] (setting [11]) and less than 6.30 in assay [4] (setting [12]).
As to `O=C(c1ccc2cc[nH]c2c1)N1CCN(c2ncnc3[nH]ccc23)CC12CC2` [Example 36, (1H-Indol-6-yl)-[7-(7H-pyrrolo[2,3-d]pyrimidin-4-yl)-4,7-diazaspiro[2.5]oct-4-yl]methanone], the negative-log EC50 (pEC50) is 6.30 to 7.00 in assay [1] (setting [9]), 6.30 to 7.00 in assay [2] (setting [10]), less than 6.30 in assay [3] (setting [11]) and less than 6.30 in assay [4] (setting [12]).
For the compound `Cc1ccc2[nH]c(C(=O)N3C4CCC3CN(c3ncnc5[nH]ccc35)C4)cc2c1` [Example 200, (5-Methyl-1H-indol-2-yl)-[3-(7H-pyrrolo[2,3-d]pyrimidin-4-yl)-3,8-diaza-bicyclo[3.2.1]oct-8-yl]-methanone], the negative-log EC50 (pEC50) is greater than 7.00 in assay [1] (setting [9]), greater than 7.00 in assay [2] (setting [10]), 6.30 to 7.00 in assay [3] (setting [11]) and less than 6.30 in assay [4] (setting [12]).
Regarding `CN(C)CCC(=O)N1CCN(c2ncnc3[nH]ccc23)CC12CC2` [Example 457, 3-Dimethylamino-1-[7-(7H-pyrrolo[2,3-d]pyrimidin-4-yl)-4,7-diaza-spiro[2.5]oct-4-yl]-propan-1-one], the pEC50 in assay [1] (setting [13]), in assay [2] (setting [14]), in assay [3] (setting [15]) and in assay [4] (setting [16]) was less than 6.30 each time.
`N#CCc1ccc(CC(=O)N2CCN(c3nc(N)nc4[nH]ccc34)CC23CC3)cc1` [Example 307, (4-{2-[7-(2-Amino-7H-pyrrolo[2,3-d]pyrimidin-4-yl)-4,7-diaza-spiro[2.5]oct-4-yl]-2-oxo-ethyl}-phenyl)-acetonitrile]: the pEC50 in assay [1] (setting [5]) was 6.30 to 7.00; in assay [2] (setting [6]), 6.30 to 7.00; in assay [3] (setting [7]) it was 6.30 to 7.00; in assay [4] (setting [8]), less than 6.30.
Regarding `NS(=O)(=O)c1cnn(CCC(=O)N2CCN(c3ncnc4[nH]ccc34)CC23CC3)c1` [Example 435, 1-{3-Oxo-3-[7-(7H-pyrrolo[2,3-d]pyrimidin-4-yl)-4,7-diaza-spiro[2.5]oct-4-yl]-propyl}-1H-pyrazole-4-sulfonic acid amide], the pEC50 is greater than 7.00 in assay [1] (setting [13]), greater than 7.00 in assay [2] (setting [14]), greater than 7.00 in assay [3] (setting [15]) and 6.30 to 7.00 in assay [4] (setting [16]).
`O=C(c1cc2ccccc2s1)N1[C@@H]2CC[C@@H]1CN(c1ncnc3[nH]ccc13)C2` [Example 169, Benzo[b]thiophen-2-yl-[3-(7H-pyrrolo[2,3-d]pyrimidin-4-yl)-3,8-diaza-bicyclo[3.2.1]oct-8-yl]-methanone]: the negative-log EC50 (pEC50) in assay [1] (setting [9]) is greater than 7.00; in assay [2] (setting [10]), greater than 7.00; in assay [3] (setting [11]), greater than 7.00; in assay [4] (setting [12]), less than 6.30.
Regarding `O=C(c1ccc(S(=O)(=O)CCO)cc1)N1CCN(c2ncnc3[nH]ccc23)CC12CC2` [Example 406, [4-(2-Hydroxy-ethanesulfonyl)-phenyl]-[7-(7H-pyrrolo[2,3-d]pyrimidin-4-yl)-4,7-diaza-spiro[2.5]oct-4-yl]-methanone], the negative logarithm of the EC50 (pEC50) was greater than 7.00 in assay [1] (setting [5]), greater than 7.00 in assay [2] (setting [6]), 6.30 to 7.00 in assay [3] (setting [7]) and 6.30 to 7.00 in assay [4] (setting [8]).
On to `COc1cc(C(=O)N2CCN(c3ncnc4[nH]ccc34)CC23CC3)ccc1S(N)(=O)=O` [Example 378, 2-Methoxy-4-[7-(7H-pyrrolo[2,3-d]pyrimidin-4-yl)-4,7-diaza-spiro[2.5]octane-4-carbonyl]-benzenesulfonamide], for which the pEC50 in assay [1] (setting [5]), in assay [2] (setting [6]), in assay [3] (setting [7]) and in assay [4] (setting [8]) was greater than 7.00 in each case.
Regarding `N#CCCC(=O)N1CCN(c2ncnc3[nH]ccc23)CC12CC2` [Example 167, 4-Oxo-4-[7-(7H-pyrrolo[2,3-d]pyrimidin-4-yl)-4,7-diaza-spiro[2.5]oct-4-yl]-butyronitrile], the negative-log EC50 (pEC50) in assay [1] (setting [9]) is greater than 7.00; in assay [2] (setting [10]) it was greater than 7.00; in assay [3] (setting [11]), greater than 7.00; in assay [4] (setting [12]) it was 6.30 to 7.00.
Regarding `O=C(c1cc2cccc(F)c2[nH]1)N1CCN(c2ncnc3[nH]ccc23)CC12CC2` [Example 362, (7-Fluoro-1H-indol-2-yl)-[7-(7H-pyrrolo[2,3-d]pyrimidin-4-yl)-4,7-diaza-spiro[2.5]oct-4-yl]-methanone], the negative logarithm of the EC50 (pEC50) was greater than 7.00 in assay [1] (setting [5]), greater than 7.00 in assay [2] (setting [6]), greater than 7.00 in assay [3] (setting [7]) and 6.30 to 7.00 in assay [4] (setting [8]).
`COc1cc(OC)cc(C(=O)N2CCN(c3ncnc4[nH]ccc34)CC23CC3)c1` [Example 213, (3,5-Dimethoxy-phenyl)-[7-(7H-pyrrolo[2,3-d]pyrimidin-4-yl)-4,7-diaza-spiro[2.5]oct-4-yl]-methanone]: the pEC50 was greater than 7.00 in assay [1] (setting [5]), greater than 7.00 in assay [2] (setting [6]), 6.30 to 7.00 in assay [3] (setting [7]) and 6.30 to 7.00 in assay [4] (setting [8]).
As for `Cn1c(C(=O)N2C3CCC2CN(c2ncnc4[nH]ccc24)C3)ccc1S(N)(=O)=O` [Example 141, 1-Methyl-5-[3-(7H-pyrrolo[2,3-d]pyrimidin-4-yl)-3,8-diaza-bicyclo[3.2.1]octane-8-carbonyl]-1H-pyrrole-2-sulfonic acid amide], the pEC50 in assay [1] (setting [9]) is greater than 7.00; in assay [2] (setting [10]), greater than 7.00; in assay [3] (setting [11]), greater than 7.00; in assay [4] (setting [12]), less than 6.30.
